# pIC50: −log10 of the molar value.
# System: NCI-H295R
# Assay: IC50 (antiproliferative, ATP content)
# Settings: 48 h
# Method in brief: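 Cell viability of adrenocortical carcinoma cells was assessed as ATP by CellTiter-Glo luminescence. Cells at 1500 per well in 1536-well plates, in serum-free DMEM with ITS, received compounds by pin transfer at 8 final concentrations (0.6 nM–46 µM) after overnight culture and were then held 48 h at 37 °C, 5% CO2. IC50 was calculated by logistic fitting against vehicle and positive-control wells, compounds with no concentration response being recorded as above the top dose.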
row,Structure (SMILES),pIC50
1,O=C(N/N=C/c1ccc([N+](=O)[O-])o1)c1cc([N+](=O)[O-])cc([N+](=O)[O-])c1O,< 4.34
2,OC1=CC(\C=C(C#N)/C#N)=CC(O)=C1O,< 4.34
3,CCC(N)Cc1c[nH]c2ccccc12 (configuration not stated),< 4.34
4,CC(=O)[C@H]1CC[C@H]2[C@@H]3CC[C@H]4C[C@H](O)CC[C@]4(C)[C@H]3C(=O)C[C@]12C,< 4.34
5,C[C@]12N[C@H](Cc3ccccc31)c1ccccc12.O=C(O)/C=C\C(=O)O,< 4.34
6,CC(C)(C)NCC(O)c1ccccc1Cl.Cl (configuration not stated),< 4.34
7,BrCCCBr.CN(C)CCCCCCN(C)C,< 4.34
8,CC(C)NC(C)C,< 4.34
9,NC(CS)C(=O)O (configuration not stated),< 4.34
10,CC(C)CCCC(C)CCCC(C)CCCCC(C)CCCC(C)CCCC(C)C (configuration not stated),< 4.34
11,[NH2][Pt]1([NH2])[O]C(=O)C2(CCC2)C(=O)[O]1,< 4.34
12,S=P(N1CC1)(N1CC1)N1CC1,< 4.34
13,ClC3=C(C=CC5=C3)OC1=CC([C@@](C(N[C@@](C8=CC%11=C(O)C=C8)([H])C(N[C@H]([C@](N[C@@H]([C@@](O)=O)C%12=C%11C(O[C@H]%13O[C@H](CO)[C@@H](O)[C@H](O)[C@@H]%13O)=CC(O)=C%12)=O)[C@@H]5O[C@@]6([H])[C@H](NC(C)=O)[C@@H](O)[C@H](O)[C@@H](CO)O6)=O)=O)([H])NC([C@@](C9=CC(O)=CC(OC%10=C(O)C=CC([C@@H]%14N)=C%10)=C9)([H])NC([C@H](NC%14=O)C7)=O)=O)=CC(OC4=CC=C7C=C4Cl)=C1O[C@H]2[C@H](NC(CC\C=C/CCCCC)=O)[C@@H](O)[C@H](O)[C@@H](CO)O2,< 4.34
14,Oc1ncnc2[nH]ncc12,< 4.34
15,CN1CCC[C@@H]1CCO[C@](C)(c1ccccc1)c1ccc(Cl)cc1.O=C(O)/C=C/C(=O)O,< 4.34
16,O[C@H]1[C@](CC2)(C)[C@@](C)(C)[C@@H]2C1,< 4.34
17,CCCC[N@@+]1(C)[C@@H]2C[C@@H](OC(=O)[C@H](CO)c3ccccc3)C[C@H]1[C@@H]1O[C@@H]12.[Br-],< 4.34
18,CCOP(=S)(OCC)Oc1cc(C)nc(C(C)C)n1,< 4.34
19,O=[N+]([O-])c1ccccc1,< 4.34
20,FC(F)(F)C(Cl)Br (configuration not stated),< 4.34
21,CC(=O)Oc1ccc2c3c1O[C@H]1[C@@H](OC(C)=O)C=C[C@H]4[C@@H](C2)N(C)CC[C@@]341,< 4.34

row,Structure (SMILES),pIC50
1,CC(C)(C)OC(=O)c1ncn2c1[C@@H]1CCCN1C(=O)c1c(Br)cccc1-2,< 4.34
2,CO[C@H]1C[C@H](O[C@H]2[C@H](C)[C@@H](O[C@@H]3O[C@H](C)C[C@H](N(C)C)[C@H]3OC(C)=O)[C@@H](C)C[C@]3(CO3)C(=O)[C@H](C)[C@@H](OC(C)=O)[C@@H](C)[C@@H](C)OC(=O)[C@@H]2C)O[C@@H](C)[C@@H]1OC(C)=O,< 4.34
3,CCCCCCCCCCCCCCCCO,< 4.34
4,O=S(=O)(O)O.[2H]C([2H])([2H])[C@H](N)Cc1ccccc1.[2H]C([2H])([2H])[C@H](N)Cc1ccccc1,< 4.34
5,NC(=O)CN1CC(O)CC1=O (configuration not stated),< 4.34
6,CCCCCCCCC(=O)NCc1ccc(O)c(OC)c1,< 4.34
7,CC(C)=CCC/C(C)=C/C=C/C(C)=C/C=C/C(C)=C/C=C/C=C(C)/C=C/C=C(C)/C=C/C=C(\C)CCC=C(C)C,< 4.34
8,CC(S)C(=O)NCC(=O)O (configuration not stated),< 4.34
9,C=CCN1CC[C@]23c4c5ccc(O)c4O[C@H]2[C@@H](O)C=C[C@H]3[C@H]1C5.Cl,< 4.34
10,O=C1[C@](NC(C3S\C(S3)=C(C(O)=O)/C(N)=O)=O)(OC)[C@]2([H])N1C(C(O)=O)=C(CSC4=NN=NN4C)CS2 (some centres not stated),< 4.34
11,Cc1ccccc1,< 4.34
12,COc1nc(C)nc(Cl)c1NC1=NCCN1,< 4.34
13,CC(C)(CO)C(O)C(=O)NCCC(=O)NCCSSCCNC(=O)CCNC(=O)C(O)C(C)(C)CO (configuration not stated),< 4.34
14,CC[N+](C)(CC)CCOC(=O)C(O)(c1ccccc1)c1ccccc1.[Br-],< 4.34
15,C=CC(=O)O,< 4.34
16,CC1(C)OC(=O)NC1=O,< 4.34
17,CO[C@@H]1[C@H](OC(=O)/C=C/C=C/C=C/C=C/C(=O)O)CC[C@]2(CO2)[C@H]1[C@@]1(C)O[C@@H]1CC=C(C)C,< 4.34
18,[Na+].[O-]Cl,< 4.34
19,CC1=CCC2CC1C2(C)C (configuration not stated),< 4.34
20,O=C1[C@H]([C@H](C)C)CC[C@@H](C)C1,< 4.34

# The remaining lines, values ahead:
row,pIC50,Structure (SMILES)
1,< 4.34,N#CC2=CC=C1[C@@](OCC1=C2)([C@]3=CC=C(C=C3)F)CCCN(C)C.OC(C(O)=O)=O
2,< 4.34,Cc1ccccc1OCC(O)CO (configuration not stated)
3,< 4.34,O=C1CCc2cc(OCCCCc3nnnn3C3CCCCC3)ccc2N1
4,< 4.34,O=C(O)Cc1ccc(CCNS(=O)(=O)c2ccc(Cl)cc2)cc1
5,< 4.34,COC(=O)N/N=C/c1c[n+]([O-])c2ccccc2[n+]1[O-]
6,< 4.34,COc1ccccc1N1CCN(CCCCNC(=O)c2ccc(-c3ccc(C(C)=O)cc3)cc2)CC1
7,< 4.34,CC(=O)NS(=O)(=O)c1ccc(N)cc1
8,< 4.34,C=CCN1CCCC1CNC(=O)c1cc(S(N)(=O)=O)cc(OC)c1OC (configuration not stated)
9,< 4.34,CCCC(=O)O[C@]1(C(=O)CO)CC[C@H]2[C@@H]3CCC4=CC(=O)CC[C@]4(C)[C@H]3[C@@H](O)C[C@@]21C
10,< 4.34,CC1(C)S[C@@H]2[C@H](NC(=O)[C@H](NC(=O)N3CCN(S(C)(=O)=O)C3=O)c3ccccc3)C(=O)N2[C@H]1C(=O)O
11,< 4.34,C[N+](C)(C)CCOC(=O)CCC(=O)OCC[N+](C)(C)C.[Cl-].[Cl-]
12,< 4.34,O=C(O)CN(CC(=O)O)Cc1cc2c(cc1O)Oc1ccc(CN(CC(=O)O)CC(=O)O)c(O)c1C21OC(=O)c2ccccc21 (configuration not stated)
13,< 4.34,CCOC(=O)O[C@]1(C(=O)COC(=O)CC)CC[C@H]2[C@@H]3CCC4=CC(=O)C=C[C@]4(C)[C@H]3[C@@H](O)C[C@@]21C
14,< 4.34,CCCC(CCC)C(=O)O
15,< 4.34,CCCCCCCCCCCCOS(=O)(=O)[O-].[Na+]
16,< 4.34,CN1CCN(C(c2ccccc2)c2ccc(Cl)cc2)CC1.Cl (configuration not stated)
17,< 4.34,CC(C(O)c1ccc(O)cc1)N1CCC(Cc2ccccc2)CC1 (configuration not stated)
18,< 4.34,O=C([O-])CCCc1ccccc1.[Na+]
19,< 4.34,CC(C(=O)O)c1ccc(CC2CCCC2=O)cc1 (configuration not stated)

row,pIC50,Structure (SMILES)
1,< 4.34,N=C(N)NCCCC[C@@H]1NC(=O)CCSSC[C@@H](C(N)=O)NC(=O)[C@@H]2CCCN2C(=O)[C@H](Cc2c[nH]c3ccccc23)NC(=O)[C@H](CC(=O)O)NC(=O)CNC1=O
2,< 4.34,CC(C)[C@@H](N)C(=O)O
3,< 4.34,CC(C)NCC(O)c1ccc(NS(C)(=O)=O)cc1 (configuration not stated)
4,< 4.34,CCOC(=O)n1ccn(C)c1=S
5,< 4.34,CC(C[N+](C)(C)C)OC(N)=O.[Cl-] (configuration not stated)
6,< 4.34,c1ccc(-n2cnnn2)cc1
7,< 4.34,CCCCNC(=O)NS(=O)(=O)c1ccc(N)cc1
8,< 4.34,CC(=O)Nc1ccc(S(=O)(=O)Nc2ccc([N+](=O)[O-])cc2)cc1
9,< 4.34,Cc1c(O)c(=O)ccn1C
10,< 4.34,Cl.NCCO/C=C/[C@H](N)C(=O)O
11,< 4.34,C[n+]1ccccc1C=NO.[Cl-]
12,< 4.34,CCN(CC)CCOC(=O)c1ccc(N)cc1.Cl
13,< 4.34,O=C(O)COc1ccc(C(=O)c2cccs2)c(Cl)c1Cl
14,< 4.34,CCCOC(=O)c1ccccc1O
15,< 4.34,CCOC(=O)c1cnc2cc(OCC(C)C)c(OCC(C)C)cc2c1O
16,< 4.34,CCOC(=O)[C@H](CCc1ccccc1)N[C@@H](C)C(=O)N1[C@H](C(=O)O)C[C@@H]2CCC[C@@H]21
17,< 4.34,CC(C)NCC(O)COc1ccc(CCOCC2CC2)cc1 (configuration not stated)
18,< 4.34,O=c1ccc2ccccc2o1
19,< 4.34,O=C1OC(OC(=O)c2cccnc2Nc2cccc(C(F)(F)F)c2)c2ccccc21 (configuration not stated)

row,pIC50,Structure (SMILES)
1,< 4.34,CC(=O)OCC(=O)[C@@]1(O)[C@H](C)C[C@H]2[C@@H]3CCC4=CC(=O)C=C[C@]4(C)[C@@]3(F)[C@@H](O)C[C@@]21C
2,< 4.34,N#Cc1c(N(CC(=O)[O-])CC(=O)[O-])sc(C(=O)[O-])c1CC(=O)[O-].O.O.O.O.O.O.O.[Sr+2].[Sr+2]
3,< 4.34,O=C1CC2(CCCC2)CC(=O)N1CCCCN1CCN(c2ncccn2)CC1
4,< 4.34,O=C2N1[C@]([C@@]([H])2NC(CC3=CC=CC=C3)=O)([H])SC(C)(C)[C@@H]1[C@@]([O-])=O.[K+]
5,< 4.34,CN1CCN(c2cc3c(nn2)Oc2ccccc2N3C)CC1
6,< 4.34,CC(C)Oc1ccc2c(=O)c(-c3ccccc3)coc2c1
7,< 4.34,CNC[C@H](O)c1cccc(O)c1.Cl
8,< 4.34,CCOc1cc(CC(=O)N[C@@H](CC(C)C)c2ccccc2N2CCCCC2)ccc1C(=O)O
9,< 4.34,CC1=NN(c2ccccc2)C(=O)C1
10,< 4.34,O=C1/C(=C2\Nc3ccccc3C2=O)Nc2ccccc21
11,< 4.34,C=CC(N)CCC(=O)O (configuration not stated)
12,< 4.34,CCN(CC)C(=O)/C(C#N)=C/c1cc(O)c(O)c([N+](=O)[O-])c1
13,< 4.34,CC(C)CCCC(C)N (configuration not stated)
14,< 4.34,COc1c(N2CCNC(C)C2)c(F)cc2c(=O)c(C(=O)O)cn(C3CC3)c12 (configuration not stated)
15,< 4.34,CCCCCCCC/C=C\CCCCCCCC(=O)O
16,< 4.34,CC1=Nc2ccc(Cl)cc2S(=O)(=O)N1
17,< 4.34,COc1cc(C(=O)N2CCOCC2)cc(OC)c1OC
18,< 4.34,N=C(N)c1ccc(OCCCCCOc2ccc(C(=N)N)cc2)cc1.O=S(=O)(O)CCO.O=S(=O)(O)CCO

# — the supplement of paper PMC3493320
